Measurements published in patent publication US20220347175A1, “PYRIDAZINONE DERIVATIVE” (Sumitomo Dainippon Pharma Co., Ltd., priority 2018, published 2022).

Columns and labels:
[1] = target: T1, human Nav1.5 (Homo sapiens, UniProt Q14524); assay: Amplification of Nav1.5-derived voltage-dependent sodium current (Nav1.5 current), cell line stably expressing human Nav1.5, automated patch clamp; format: cell-based; conditions: for Nav1.5 current amplification rate (%) / activation at 10 µM: 10 μmol/L compound, change of the area under the curve of Nav1.5 current (Test Result 1)
T1 construct: expressed in transfected cells; host or cells: CHO-K1 (T-REx System, ThermoFisher Scientific)

[2] = target: T2, human Nav1.1 (Homo sapiens, UniProt P35498); assay: Amplification of Nav1.1-derived voltage-dependent sodium current (Nav1.1 current), cell line stably expressing human Nav1.1, automated patch clamp; format: cell-based; conditions: for Nav1.1 current amplification rate (%) / activation at 10 µM: 10 μmol/L compound, change of the area under the curve of Nav1.1 current (Test Result 1)
T2 construct: host or cells: HEK293
Method in brief: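 Automated whole-cell voltage-clamp recordings used HEK293 cells stably expressing human Nav1.1, keeping only cells with >500 pA current, with currents evoked by ramp voltage. Compounds were applied in extracellular fluid with 1% DMSO, and amplification (%) was computed from peak current or AUC after versus before addition.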

[3] = read-out: Nav1.5 current amplification rate (%)
[4] = read-out: Nav1.1 current amplification rate (%)

T1 sequence (Q14524 1-2015 isoform Q14524-2): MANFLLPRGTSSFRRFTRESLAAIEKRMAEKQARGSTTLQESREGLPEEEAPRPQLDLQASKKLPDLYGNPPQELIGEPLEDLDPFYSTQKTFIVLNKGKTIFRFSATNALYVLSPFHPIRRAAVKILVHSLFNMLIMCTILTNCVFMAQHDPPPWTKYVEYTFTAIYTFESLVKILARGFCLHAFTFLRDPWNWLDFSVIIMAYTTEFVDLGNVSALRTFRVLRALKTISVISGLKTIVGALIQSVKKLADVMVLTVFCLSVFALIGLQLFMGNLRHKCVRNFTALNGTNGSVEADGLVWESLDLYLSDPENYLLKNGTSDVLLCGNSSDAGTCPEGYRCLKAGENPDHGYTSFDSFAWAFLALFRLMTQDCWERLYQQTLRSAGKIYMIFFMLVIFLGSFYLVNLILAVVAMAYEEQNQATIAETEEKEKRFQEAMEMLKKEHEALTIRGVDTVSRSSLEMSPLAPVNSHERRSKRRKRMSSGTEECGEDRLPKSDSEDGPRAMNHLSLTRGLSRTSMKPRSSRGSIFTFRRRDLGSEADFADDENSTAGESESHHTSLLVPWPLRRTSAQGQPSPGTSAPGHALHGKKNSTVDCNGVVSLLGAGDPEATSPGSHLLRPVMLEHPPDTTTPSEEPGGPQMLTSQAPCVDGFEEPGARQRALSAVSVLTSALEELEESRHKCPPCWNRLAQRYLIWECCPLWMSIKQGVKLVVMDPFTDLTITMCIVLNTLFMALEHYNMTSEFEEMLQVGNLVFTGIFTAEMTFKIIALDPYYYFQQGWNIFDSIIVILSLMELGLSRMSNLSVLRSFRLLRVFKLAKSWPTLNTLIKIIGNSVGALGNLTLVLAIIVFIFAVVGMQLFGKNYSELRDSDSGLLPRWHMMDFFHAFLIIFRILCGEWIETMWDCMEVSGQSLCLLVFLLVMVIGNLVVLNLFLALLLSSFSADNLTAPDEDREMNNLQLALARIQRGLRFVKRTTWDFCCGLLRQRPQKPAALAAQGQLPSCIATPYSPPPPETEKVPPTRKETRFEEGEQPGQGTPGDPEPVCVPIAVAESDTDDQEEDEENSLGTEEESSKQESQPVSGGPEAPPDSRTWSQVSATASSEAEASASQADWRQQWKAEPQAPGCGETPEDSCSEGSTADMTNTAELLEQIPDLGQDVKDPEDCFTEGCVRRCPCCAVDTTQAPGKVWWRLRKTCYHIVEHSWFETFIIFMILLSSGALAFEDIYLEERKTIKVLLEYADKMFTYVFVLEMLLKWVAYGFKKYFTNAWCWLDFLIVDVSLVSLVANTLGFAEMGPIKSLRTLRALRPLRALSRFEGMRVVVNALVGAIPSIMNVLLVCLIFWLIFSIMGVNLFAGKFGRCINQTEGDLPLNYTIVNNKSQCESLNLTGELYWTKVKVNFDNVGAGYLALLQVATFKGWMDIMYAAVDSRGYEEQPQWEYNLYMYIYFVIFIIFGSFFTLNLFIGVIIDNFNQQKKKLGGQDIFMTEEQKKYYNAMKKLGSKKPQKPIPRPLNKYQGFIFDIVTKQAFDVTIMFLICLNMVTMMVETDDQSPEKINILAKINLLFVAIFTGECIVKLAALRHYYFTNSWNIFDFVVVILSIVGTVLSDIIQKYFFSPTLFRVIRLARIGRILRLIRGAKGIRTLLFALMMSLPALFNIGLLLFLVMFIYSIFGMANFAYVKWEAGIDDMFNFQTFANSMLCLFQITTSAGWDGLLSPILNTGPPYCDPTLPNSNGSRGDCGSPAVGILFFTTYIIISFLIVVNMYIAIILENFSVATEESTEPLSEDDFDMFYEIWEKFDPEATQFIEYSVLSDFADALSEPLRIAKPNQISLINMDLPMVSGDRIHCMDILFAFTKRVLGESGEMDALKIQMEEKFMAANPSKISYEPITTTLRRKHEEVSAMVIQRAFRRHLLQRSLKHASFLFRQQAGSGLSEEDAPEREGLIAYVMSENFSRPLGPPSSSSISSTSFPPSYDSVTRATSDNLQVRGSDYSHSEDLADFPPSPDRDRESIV

Row | Structure (SMILES) | Nav1.5 current amplification rate (%) [1] [%] | Nav1.1 current amplification rate (%) [2] [%] | activation at 10 µM [1, 3] [%] | activation at 10 µM [2, 4] [%] | other results
1 | CC1CCN(c2ccc(=O)n(CC(=O)Nc3cccc(-c4cnco4)c3)n2)CC1 [Example 77] | 28 | 93 |  |  | 
2 | CC1CCN(c2ccc(=O)n(CC(=O)Nc3cccc(-c4ncco4)c3)n2)CC1 [Example 78] | 4 | 78 |  |  | 
3 | CC1CCN(c2ccc(=O)n(CC(=O)Nc3ccc(C(=O)N4CCCC4)cc3)n2)CC1 [Example 79] | 4 | 165 |  |  | 
4 | CC1CCN(c2ccc(=O)n(CC(=O)Nc3cccc(-c4nccs4)c3)n2)CC1 [Example 80] | -3 | 131 |  |  | 
5 | CC1CCN(c2ccc(=O)n(CC(=O)Nc3ccc4oc(=O)n(C)c4c3)n2)CC1 [Example 81] | 21 | 69 |  |  | 
6 | CC1CCN(c2ccc(=O)n(CC(=O)Nc3ccc4oc(=O)[nH]c4c3)n2)CC1 [Example 82] | 5 | 121 |  |  | 
7 | Cc1noc2cc(NC(=O)Cn3nc(N4CCC(C)CC4)ccc3=O)ccc12 [Example 84] | 123 | 315 |  |  | 
8 | CC1CCN(c2ccc(=O)n(CC(=O)Nc3ccc4c(c3)NC(=O)C4)n2)CC1 [Example 86] | 3 | 73 |  |  | 
9 | CC1CCN(c2ccc(=O)n(CC(=O)Nc3ccc4scnc4c3)n2)CC1 [Example 87] | 22 | 255 |  |  | 
10 | Cc1nc2cc(NC(=O)Cn3nc(N4CCC(C)CC4)ccc3=O)ccc2s1 [Example 88] | 31 | 183 |  |  | 
11 | CC1CCN(c2ccc(=O)n(CC(=O)N3CCc4cc(N5CCOCC5)ccc43)n2)CC1 [Example 89] | 34 | 187 |  |  | 
12 | CC1CCN(c2ccc(=O)n(CC(=O)Nc3ccc4oc(N(C)C)nc4c3)n2)CC1 [Example 91] | 9 | 93 |  |  | 
13 | CC1CCN(c2ccc(=O)n(CC(=O)Nc3cc(Cl)c4ocnc4c3)n2)CC1 [Example 94] | 29 | 198 |  |  | 
14 | CC1CCN(c2ccc(=O)n(CC(=O)Nc3ccc4nsnc4c3)n2)CC1 [Example 95] | 18 | 221 |  |  | 
15 | Cc1cc(NC(=O)Cn2nc(N3CCC(C)CC3)ccc2=O)cc2ncoc12 [Example 96] | 7 | 105 |  |  | 
16 | CCc1nc2cc(NC(=O)Cn3nc(N4CCC(C)CC4)ccc3=O)ccc2o1 [Example 97] | 19 | 296 |  |  | 
17 | CC1CCN(c2ccc(=O)n(CC(=O)Nc3ccc4c(c3)ncn4C)n2)CC1 [Example 98] | 4 | 15 |  |  | 
18 | COc1nc2cc(NC(=O)Cn3nc(N4CCC(C)CC4)ccc3=O)ccc2o1 [Example 99] | 4 | 103 |  |  | 
19 | Cc1c(N2CCC(C)CC2)nn(CC(=O)Nc2ccc(C#N)nc2)c(=O)c1C [Example 100] |  |  | 56 | 197 | 
20 | O=C(Cn1nc(C2=CCC(F)(F)CC2)ccc1=O)Nc1ccc(C(F)(F)F)nc1 [Example 103] |  |  | 13 | 58 | 

Row | Structure (SMILES) | Nav1.5 current amplification rate (%) [1] [%] | Nav1.1 current amplification rate (%) [2] [%] | activation at 10 µM [1, 3] [%] | activation at 10 µM [2, 4] [%] | other results
21 | N#Cc1cncc(NC(=O)Cn2nc(C3=CCC(F)(F)CC3)ccc2=O)c1 [Example 107] |  |  | 24 | 37 | 
22 | N#Cc1ccc(NC(=O)Cn2nc(C3=CCC(F)(F)CC3)ccc2=O)cn1 [Example 109] |  |  | 23 | 57 | 
23 | O=C(Cn1nc(C2=CCC(F)(F)CC2)ccc1=O)Nc1cncc(C(F)(F)F)c1 [Example 112] |  |  | 9 | 46 | 
24 | O=C(Cn1nc(C2=CCC(F)(F)CC2)ccc1=O)Nc1ccnc(C(F)(F)F)c1 [Example 114] |  |  | 12 | 83 | 
25 | N#Cc1cc(NC(=O)Cn2nc(C3=CCC(F)(F)CC3)ccc2=O)ccn1 [Example 115] |  |  | 12 | 56 | 
26 | N#Cc1ccc(NC(=O)Cn2nc(N3CCCCCC3)ccc2=O)cn1 [Example 119] |  |  | 25 | 120 | 
27 | O=C(Cn1nc(N2CCCCCC2)ccc1=O)Nc1ccnc(C(F)(F)F)c1 [Example 120] |  |  | 5 | 176 | 
28 | N#Cc1ccc(NC(=O)Cn2nc(N3CCC4(CCCC4)C3)ccc2=O)cn1 [Example 121] |  |  | 98 | 184 | 
29 | O=C(Cn1nc(N2CCC3(CCCC3)C2)ccc1=O)Nc1ccc2ocnc2c1 [Example 122] |  |  | 18 | 173 | 
30 | O=C(Cn1nc(N2CCC3(CCCC3)C2)ccc1=O)Nc1cccc(-n2ccnc2)c1 [Example 123] |  |  | 30 | 246 | 
31 | N#Cc1ccc(NC(=O)Cn2nc(N3CCC4(CCC4)CC3)ccc2=O)cn1 [Example 124] |  |  | 70 | 205 | 
32 | O=C(Cn1nc(N2CCC3(CCC3)CC2)ccc1=O)Nc1cccc(-n2ccnc2)c1 [Example 125] |  |  | 34 | 220 | 
33 | O=C(Cn1nc(N2CCC3(CCC3)CC2)ccc1=O)Nc1ccc2ocnc2c1 [Example 126] |  |  | 13 | 167 | 
34 | O=C(Cn1nc(N2CCC3(CCC3)CC2)ccc1=O)Nc1ccc2scnc2c1 [Example 127] |  |  | 58 | 229 | 
35 | O=C(Cn1nc(N2CCC3(CCCC3)C2)ccc1=O)Nc1ccc2scnc2c1 [Example 128] |  |  | 56 | 240 | 
36 | CC1(C)CCC=C(c2ccc(=O)n(CC(=O)Nc3ccc4ocnc4c3)n2)C1 [Example 129] |  |  | 25 | 314 | 
37 | O=C(Cn1nc(N2CCCC3(CCC3)C2)ccc1=O)Nc1ccc2ocnc2c1 [Example 130] |  |  | 3 | 181 | 
38 | O=C(Cn1nc(N2CCC3(CCC3)C2)ccc1=O)Nc1ccc2ocnc2c1 [Example 131] |  |  | 7 | 227 | 
39 | O=C(Cn1nc(N2CCCC3(CCCC3)C2)ccc1=O)Nc1ccc2ocnc2c1 [Example 132] |  |  | -2 | 108 | 
40 | O=C(Cn1nc(N2CCCC3(CCC3)C2)ccc1=O)Nc1ccc2scnc2c1 [Example 133] |  |  | 12 | 285 | 

Row | Structure (SMILES) | Nav1.5 current amplification rate (%) [1] [%] | Nav1.1 current amplification rate (%) [2] [%] | activation at 10 µM [1, 3] [%] | activation at 10 µM [2, 4] [%] | other results
41 | O=C(Cn1nc(N2CCCC3(CCC3)C2)ccc1=O)Nc1cccc(-c2nccs2)c1 [Example 134] |  |  | -5 | 44 | 
42 | O=C(Cn1nc(N2CCC3(CCCC3)CC2)ccc1=O)Nc1ccc2ocnc2c1 [Example 135] |  |  | 2 | 195 | 
43 | Cc1ccc(-c2nn(CC(=O)Nc3ccn4ccnc4c3)c(=O)c(C)c2C)cc1 [Example 156] | 4 | 33 |  |  | 
44 | Cc1ccc(-c2ccc(=O)n(CC(=O)N3CCc4cc(N5CCOCC5)ccc43)n2)cc1 [Example 158] | 30 | 122 |  |  | 
45 | Cc1ccc(-c2ccc(=O)n(CC(=O)N3CCc4cnccc43)n2)cc1 [Example 159] | 26 | 32 |  |  | 
46 | O=C(Cn1nc(N2CCC3(CCC3)C2)ccc1=O)Nc1ccc2scnc2c1 [Example 160] |  |  | 33 | 324 | 
47 | O=C(Cn1nc(N2CCC3C(C2)C3(F)F)ccc1=O)Nc1ccc2ocnc2c1 (centres unmarked) [Example 161] |  |  | -1 | 21 | 
48 | O=C(Cn1nc(N2CC3C(C2)C3(F)F)ccc1=O)Nc1ccc2ocnc2c1 (centres unmarked) [Example 162] |  |  | 0 | 6 | 
49 | CC1CCN(c2ccc(=O)n(CC(=O)Nc3ccc4ccoc4c3)n2)CC1 [Example 163] |  |  | 1 | 118 | 
50 | CC1CCN(c2ccc(=O)n(CC(=O)N3CCc4cc(N5CCOCC5)ccc43)n2)CC1 [Example 164] |  |  | 34 | 187 | 
51 | Cc1c(N2CCC3(CCCC3)C2)nn(CC(=O)Nc2ccc3ocnc3c2)c(=O)c1C [Example 165] |  |  | 11 | 146 | 
52 | Cc1c(N2CCC3(CCCC3)C2)nn(CC(=O)Nc2ccn3ccnc3c2)c(=O)c1C [Example 166] |  |  | 45 | 150 | 
53 | O=C(Cn1nc(N2CCC3(CCCC3)C2)ccc1=O)Nc1ccn2ccnc2c1 [Example 167] |  |  | 21 | 129 | 
54 | O=C(Cn1nc(N2CCC3(CCC3)CC2)ccc1=O)Nc1ccn2ccnc2c1 [Example 168] |  |  | 23 | 205 | 
55 | O=C(Cn1nc(N2CCC3(CCCC3)C2)ccc1=O)Nc1ccn2nccc2c1 [Example 169] |  |  | 43 | 155 | 
56 | CC1CCN(c2ccc(=O)n(CC(=O)Nc3ccc4c(c3)OCC4)n2)CC1 [Example 170] |  |  | 1 | 107 | 
57 | CC1CCN(c2ccc(=O)n(CC(=O)Nc3cccc(-c4cnc[nH]4)c3)n2)CC1 [Example 171] |  |  |  |  | activation at 3 µM ([1]; compound 3 μmol/L, CHO-K1 stably expressing human Nav1.5, read-out: Nav1.5 current amplification rate (%)): 0%; activation at 3 µM ([2]; compound 3 μmol/L, HEK293 stably expressing human Nav1.1, read-out: Nav1.1 current amplification rate (%)): 2%
58 | O=C(Cn1nc(N2CCC3(CCC3)C2)ccc1=O)Nc1ccc2c(c1)OCC2 [Example 172] |  |  | 4 | 117 | 
